Laboratory results published in patent US8470607B2, “Inhibition of angiogenesis” (Morphotek, Inc., priority 2008, dated 2013).

Tested on: VEGF-stimulated angiogenesis
Assay: CAM assay of VEGF-stimulated angiogenesis: intravenous TM-601, comparison and combination with Avastin and Lucentis
Format: in vivo, chick
Settings: for relative potency of inhibition of VEGF-stimulated angiogenesis, molar basis: TM-601, Avastin and Lucentis compared on a molar basis
Procedure: The CAM assay was performed using two different methods, depending on the contract laboratory where it was performed. At one contract laboratory, fertilized chick eggs were incubated at 37° C. with 55% humidity. Ten days after fertilization, a small hole was punctured with a hypodermic needle in the area of the shell concealing the air sac. A second hole was punctured in the shell on the broadside of the egg directly over an avascular portion of the embryonic membrane. A false air sac was created beneath the second hold by the application of negative pressure to the first hole, which caused the membrane to separate from the shell. A window approximately 1.0 cm^2 in area was cut in the shell over the dropped CAM with the use of a small grinding wheel, allowing direct access to the underlying CAM. Filter disks were soaked in 3 mg/mL rtisone acetate and subsequently air dried under sterile conditions. […] Sterile filter disks with VEGF at 2 μg/mL were placed on the growing CAMs. […] CAMs were harvested on the 3rd day of stimulation. The CAM tissue directly beneath the filter disk was removed from the embryos and tissues were washed three times with PBS. Blood vessel branch points in the 5 m filter disk area were counted at 30× magnification as a quantitative indicator of vascular sprouting in response to the pro-angiogenic compounds. Each egg was analyzed by two different operators and the average reading was reported. The following equation was used to calculate the mean percent angiogenesis inhibition with VEGF-stimulation:
At the second contract laboratory, the CAM assay was performed as follows. Fertilized chicken eggs were incubated at 37.5° C. in a humidified egg incubator with forced air circulation. […] On embryonic day 7, the CAM membranes were examined and quantitatively analyzed for new blood vessel formation after injection of dyed non-fat dry milk solution. The treatment effects on angiogenesis were evaluated by determining vascular density indexed (VDI) on CAMs only with viable chicken embryos. […]

ranabizumab [Lucentis]
relative potency of inhibition of VEGF-stimulated angiogenesis, by weight of inhibitor (TM-601, Avastin and Lucentis compared on a mass basis): most potent
relative potency of inhibition of VEGF-stimulated angiogenesis, molar basis: more effective than TM-601

bevacizumab [Avastin]
relative potency of inhibition of VEGF-stimulated angiogenesis, molar basis: more effective than TM-601
